Reference: patent US7306817B2, “Herbal composition for treating CD33+ acute and chronic myeloid leukemia and a method thereof” (Council of Scientific and Industrial Research, priority 2000, dated 2007)

Tests used:
[1] = system: AML cells; assay: Growth inhibition of AML cells in vitro; type: cell-based, human; settings: single fraction, dose 100 μg/ml, 48 hrs
Procedure: (§1) Whole blood (10 ml) was drawn from a previously diagnosed CD33+ myeloid leukemic patient and mononuclear cells were separated by Ficoll/hypaqal density gradient centrifugation.
(§2) Incubation of PBMC of myeloid leukemia patients with purified compound 3-O-p-coumaryl quinic acid in vitro. PBMC (2×10^6/ml) of myeloid leukemia patients were incubated with varied concentrations of purified compound for 48 h. Cells were then washed, and counted for viability.
Incubation of myeloid leukemic cells with fractions having retention time 3.60 (fraction-1) and 24.00 min (fraction 9). PBMC of myeloid leukemic patients were incubated with above-mentioned fractions, alone or in combination of the two for 48 hrs. Cells were then washed and counted for viability.

[2] = system: CD33+ myeloid leukemia cells; assay: Destruction of CD33+ myeloid leukemia cells (patient PBMC) in vitro, viability count and flow cytometry; type: cell-based, human; settings: purified compound, varied concentrations, 48 h
Procedure: as §1
Incubation of PBMC of myeloid leukemia patients with crude Piper betel extract. PBMC (2×10^6/ml) of myeloid leukemia patients were incubated with Piper betel extract (10.0 mg/ml) for 48 hours and then washed and counted for viability.
Incubation of PBMC of myeloid leukemia patients with fraction E in vitro. PBMC (2×10^6/ml) of myeloid leukemia patients were incubated with varied concentrations of fraction E for 48 hours. Cells were then washed and counted for viability.
as §2
Flow cytometry of myeloid leukemia cells; Myeloid leukemia cells before and after in vitro incubation with crude Piper betel extract, purified fraction E or purified 3-O-p-coumaryl quinic acid were marked with anti-CD33-FITC and anti-CD13-PE monoclonal antibodies. Cells were then analysed in a flow cytometer (FACS Calibur, Bection Dickinson, USA).

Compound: O=C(C=Cc1ccc(O)cc1)OC1CC(O)(C(=O)O)CC(O)C1O (centres unmarked) [3-O-p-coumaryl quinic acid]
- % Inhibition of growth [1]: 54.00%
- effect on PBMC of CD33+ myeloid leukemia patients (both AML and CML) [2]: destroyed
